Data reported in PubChem BioAssay (NCI).
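All cell lines were grown in 96-well plates and treated with compound for 48 hours. Abbreviation: GI50, concentration required for 50% inhibition of growth. TGI denotes the concentration required for complete inhibition of growth.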

Experiments:
Experiment in all cases: growth of human tumour cells (NCI), 48 h
SK-OV-3 ovarian = test system: SK-OV-3 ovarian
HT29 colon = test system: HT29 colon
OVCAR-5 ovarian = test system: OVCAR-5 ovarian
CAKI-1 renal = test system: CAKI-1 renal
OVCAR-4 ovarian = test system: OVCAR-4 ovarian
TK-10 renal = test system: TK-10 renal
COLO 205 colon = test system: COLO 205 colon
HCT-116 colon = test system: HCT-116 colon
NCI-H226 lung = test system: NCI-H226 lung
HOP-92 NSCLC = test system: HOP-92 NSCLC
786-0 renal = test system: 786-0 renal
MDA-MB-435 = test system: MDA-MB-435
BT-549 breast = test system: BT-549 breast
DU-145 prostate = test system: DU-145 prostate
MALME-3M melanoma = test system: MALME-3M melanoma
NCI-H460 lung = test system: NCI-H460 lung
MOLT-4 leukemia = test system: MOLT-4 leukemia
A498 renal = test system: A498 renal
HCT-15 colon = test system: HCT-15 colon
OVCAR-3 ovarian = test system: OVCAR-3 ovarian
SF-539 CNS = test system: SF-539 CNS
HOP-62 NSCLC = test system: HOP-62 NSCLC
SN12C renal = test system: SN12C renal
NCI/ADR-RES ovarian = test system: NCI/ADR-RES ovarian
UO-31 renal = test system: UO-31 renal
NCI-H522 lung = test system: NCI-H522 lung
T-47D breast = test system: T-47D breast
IGROV1 ovarian = test system: IGROV1 ovarian
OVCAR-8 ovarian = test system: OVCAR-8 ovarian
A549 NSCLC = test system: A549 NSCLC
SNB-75 CNS = test system: SNB-75 CNS
PC-3 prostate = test system: PC-3 prostate
SF-295 CNS = test system: SF-295 CNS
MCF7 breast = test system: MCF7 breast
SR leukemia = test system: SR leukemia
RXF 393 renal = test system: RXF 393 renal
EKVX NSCLC = test system: EKVX NSCLC
LOX IMVI melanoma = test system: LOX IMVI melanoma
SW-620 colon = test system: SW-620 colon
U251 CNS = test system: U251 CNS
RPMI-8226 leukemia = test system: RPMI-8226 leukemia
SF-268 CNS = test system: SF-268 CNS
HCC-2998 colon = test system: HCC-2998 colon
SK-MEL-2 melanoma = test system: SK-MEL-2 melanoma
MDA-MB-231 breast = test system: MDA-MB-231 breast
HS 578T breast = test system: HS 578T breast
HL-60(TB) leukemia = test system: HL-60(TB) leukemia
CCRF-CEM leukemia = test system: CCRF-CEM leukemia
NCI-H23 lung = test system: NCI-H23 lung
KM12 colon = test system: KM12 colon
K-562 leukemia = test system: K-562 leukemia
ACHN renal = test system: ACHN renal
SNB-19 CNS = test system: SNB-19 CNS
SK-MEL-5 melanoma = test system: SK-MEL-5 melanoma
M14 melanoma = test system: M14 melanoma

Work on CO[C@H](C(=O)[C@@H](O)[C@@H](C)O)[C@@H]1Cc2cc3cc(O[C@H]4C[C@@H](O[C@H]5C[C@@H](O)[C@H](O)C(C)O5)[C@H](O)C(C)(O)O4)cc(O)c3c(O)c2C(=O)[C@H]1O[C@H]1C[C@@H](O[C@H]2C[C@@H](O[C@H]3C[C@@H](OC)[C@H](O)C(C)O3)[C@@H](O)C(C)O2)[C@H](O)C(C)O1 (stereo not given in full) yielded a GI50 (SK-OV-3 ovarian) of 0.671 µM, a TGI (SK-OV-3 ovarian) greater than 16.8 µM and a GI50 (HT29 colon) of 1.16 µM. For the same molecule, the TGI (HT29 colon) was greater than 16.8 µM, the GI50 (OVCAR-5 ovarian) was 2.95 µM and the TGI (OVCAR-5 ovarian) was greater than 16.8 µM. The GI50 (CAKI-1 renal) was greater than 16.8 µM, the TGI (CAKI-1 renal) was greater than 16.8 µM and the GI50 (OVCAR-4 ovarian) was 1.35 µM. It also gave a TGI (OVCAR-4 ovarian) greater than 16.8 µM, a GI50 (TK-10 renal) of 2.8 µM and a TGI (TK-10 renal) greater than 16.8 µM. For the same molecule, the GI50 (COLO 205 colon) was 0.72 µM, the TGI (COLO 205 colon) was 4.94 µM and the GI50 (HCT-116 colon) was 0.542 µM. The TGI (HCT-116 colon) was greater than 16.8 µM, the GI50 (NCI-H226 lung) was 0.796 µM and the TGI (NCI-H226 lung) was 5.34 µM. It also gave a GI50 (HOP-92 NSCLC) of 0.528 µM, a TGI (HOP-92 NSCLC) of 8.66 µM and a GI50 (786-0 renal) of 1.51 µM. For the same molecule, the TGI (786-0 renal) was greater than 16.8 µM, the GI50 (MDA-MB-435) was 0.895 µM and the TGI (MDA-MB-435) was greater than 16.8 µM. It also gave a GI50 (BT-549 breast) of 2.04 µM, a TGI (BT-549 breast) greater than 16.8 µM and a GI50 (DU-145 prostate) of 0.976 µM. The TGI (DU-145 prostate) was greater than 16.8 µM, the GI50 (MALME-3M melanoma) was 0.212 µM and the TGI (MALME-3M melanoma) was 14 µM. The GI50 (NCI-H460 lung) was 0.469 µM, the TGI (NCI-H460 lung) was greater than 16.8 µM and the GI50 (MOLT-4 leukemia) was 1.2 µM. For the same molecule, the TGI (MOLT-4 leukemia) was greater than 16.8 µM, the GI50 (A498 renal) was 0.369 µM and the TGI (A498 renal) was 1.29 µM. The GI50 (HCT-15 colon) was greater than 16.8 µM, the TGI (HCT-15 colon) was greater than 16.8 µM and the GI50 (OVCAR-3 ovarian) was 0.956 µM. It also gave a TGI (OVCAR-3 ovarian) greater than 16.8 µM, a GI50 (SF-539 CNS) of 0.658 µM and a TGI (SF-539 CNS) of 12.2 µM. For the same molecule, the GI50 (HOP-62 NSCLC) was 0.521 µM, the TGI (HOP-62 NSCLC) was greater than 16.8 µM and the GI50 (SN12C renal) was 0.868 µM. The TGI (SN12C renal) was greater than 16.8 µM, the GI50 (NCI/ADR-RES ovarian) was greater than 16.8 µM and the TGI (NCI/ADR-RES ovarian) was greater than 16.8 µM. For the same molecule, the GI50 (UO-31 renal) was 4.06 µM, the TGI (UO-31 renal) was greater than 16.8 µM and the GI50 (NCI-H522 lung) was 0.354 µM. It also gave a TGI (NCI-H522 lung) of 14.8 µM, a GI50 (T-47D breast) of 0.447 µM and a TGI (T-47D breast) greater than 16.8 µM. It also gave a GI50 (IGROV1 ovarian) of 0.809 µM, a TGI (IGROV1 ovarian) greater than 16.8 µM and a GI50 (OVCAR-8 ovarian) of 1.55 µM. It also gave a TGI (OVCAR-8 ovarian) greater than 16.8 µM, a GI50 (A549 NSCLC) of 0.828 µM and a TGI (A549 NSCLC) greater than 16.8 µM. It also gave a GI50 (SNB-75 CNS) of 0.063 µM, a TGI (SNB-75 CNS) of 6.84 µM and a GI50 (PC-3 prostate) of 1.42 µM. The TGI (PC-3 prostate) was greater than 16.8 µM, the GI50 (SF-295 CNS) was 0.666 µM and the TGI (SF-295 CNS) was greater than 16.8 µM. It also gave a GI50 (MCF7 breast) of 0.185 µM, a TGI (MCF7 breast) greater than 16.8 µM and a GI50 (SR leukemia) of 0.25 µM. It also gave a TGI (SR leukemia) greater than 16.8 µM, a GI50 (RXF 393 renal) of 1.27 µM and a TGI (RXF 393 renal) of 7.94 µM. The GI50 (EKVX NSCLC) was 1.5 µM, the TGI (EKVX NSCLC) was greater than 16.8 µM and the GI50 (LOX IMVI melanoma) was 0.384 µM. It also gave a TGI (LOX IMVI melanoma) greater than 16.8 µM, a GI50 (SW-620 colon) of 1.31 µM and a TGI (SW-620 colon) greater than 16.8 µM. It also gave a GI50 (U251 CNS) of 0.387 µM, a TGI (U251 CNS) greater than 16.8 µM and a GI50 (RPMI-8226 leukemia) of 0.833 µM. It also gave a TGI (RPMI-8226 leukemia) greater than 16.8 µM, a GI50 (SF-268 CNS) of 0.726 µM and a TGI (SF-268 CNS) greater than 16.8 µM. It also gave a GI50 (HCC-2998 colon) of 1.92 µM, a TGI (HCC-2998 colon) greater than 16.8 µM and a GI50 (SK-MEL-2 melanoma) of 0.704 µM. The TGI (SK-MEL-2 melanoma) was 5.18 µM, the GI50 (MDA-MB-231 breast) was 1.89 µM and the TGI (MDA-MB-231 breast) was greater than 16.8 µM. The GI50 (HS 578T breast) was 0.708 µM, the TGI (HS 578T breast) was greater than 16.8 µM and the GI50 (HL-60(TB) leukemia) was 11.2 µM. For the same molecule, the TGI (HL-60(TB) leukemia) was greater than 16.8 µM, the GI50 (CCRF-CEM leukemia) was 5 µM and the TGI (CCRF-CEM leukemia) was greater than 16.8 µM. The GI50 (NCI-H23 lung) was 0.831 µM, the TGI (NCI-H23 lung) was greater than 16.8 µM and the GI50 (KM12 colon) was 0.786 µM. It also gave a TGI (KM12 colon) greater than 16.8 µM, a GI50 (K-562 leukemia) of 0.951 µM and a TGI (K-562 leukemia) greater than 16.8 µM. For the same molecule, the GI50 (ACHN renal) was 3.68 µM, the TGI (ACHN renal) was greater than 16.8 µM and the GI50 (SNB-19 CNS) was 0.761 µM. It also gave a TGI (SNB-19 CNS) greater than 16.8 µM, a GI50 (SK-MEL-5 melanoma) of 0.509 µM and a TGI (SK-MEL-5 melanoma) of 2.97 µM. The GI50 (M14 melanoma) was 2.56 µM and the TGI (M14 melanoma) was greater than 16.8 µM.
